This passage reports Ki and Km results from ChEMBL document CHEMBL2074304, “Primary active transport of peptidic endothelin antagonists by rat hepatic canalicular membrane” (J Pharmacol Exp Ther, 1999).

Square brackets hold non-standard residues; d marks the D form. Peptide text beside a SMILES is read from it. * marks the point of attachment. dGly(2-thienyl) = N[C@@H](C(=O)O)c1cccs1; Moc = COC(=O)*

What all share (type): functional, cell membranes, Sprague-Dawley, Bile canalicular membrane vesicle
The target of data set [1] is T1, ATP-binding cassette sub-family C member 2 (Rattus norvegicus, UniProt Q63120). The experiment in a line: TP_TRANSPORTER: inhibition of BQ-123 uptake in bile canalicular membrane vesicles from SD rat.
Data set [2] deals with T1, ATP-binding cassette sub-family C member 2. Briefly: TP_TRANSPORTER: inhibition of BQ-485 uptake in bile canalicular membrane vesicles from SD rat.
Substrate in data set [3]: CC(C)C[C@@H]1NC(=O)[C@@H](C(C)C)NC(=O)[C@@H]2CCCN2C(=O)[C@@H](CC(=O)O)NC(=O)[C@@H](Cc2c[nH]c3ccccc23)NC1=O
The experiment in a line: (§1) TP_TRANSPORTER: uptake in bile canalicular membrane vesicles from SD rat.

Substrate in data set [4]: CC(C)C[C@H](NC(=O)N1CCCCCC1)C(=O)N[C@H](Cc1c[nH]c2ccccc12)C(=O)N[C@H](Cc1c[nH]c2ccccc12)C(=O)O
The data set is described as §1.

Substrate in data set [5]: [H][C@@]12CCCN1C(=O)[C@@H](CC(=O)O)NC(=O)[C@@H](Cc1c[nH]c3ccccc13)NC(=O)[C@H](CC(C)C)NC(=O)[C@@H](c1cccs1)NC2=O
The description is as §1.

The molecule `CC(C)C[C@H](NC(=O)N1CCCCCC1)C(=O)N[C@H](Cc1c[nH]c2ccccc12)C(=O)NC(C)CC(=O)O` (stereo not given in full) showed an inhibition constant (Ki) in data set [1] of 40 µM.

For `CC(C)C[C@@H]1NC(=O)[C@@H](c2cccs2)NC(=O)[C@@H]2CCCN2C(=O)[C@@H](CC(=O)O)NC(=O)[C@@H](Cc2c[nH]c3ccccc23)NC1=O` (cyclo(L[dW][dD]P[dGly(2-thienyl)])), the inhibition constant Ki in data set [1] is 65.5 µM.

In data set [1], `CC(C)C[C@H](NC(=O)N1CCCCCC1)C(=O)N[C@H](Cc1c[nH]c2ccccc12)C(=O)N[C@H](Cc1c[nH]c2ccccc12)C(=O)O` showed an inhibition constant (Ki) of 8.32 µM.

Consider `CC(C)C[C@@H]1NC(=O)[C@@H](C(C)C)NC(=O)[C@@H]2C[C@H](OC(=O)[C@@H](N)CCCNC(=N)N)CN2C(=O)[C@@H](CC(=O)O)NC(=O)[C@@H](Cc2c[nH]c3ccccc23)NC1=O`, for which the affinity in data set [1], expressed as Ki, was 1.01 µM.

The molecule `CC(C)C[C@@H]1NC(=O)[C@@H](C(C)C)NC(=O)[C@@H]2C[C@@H](OC(=O)[C@H](CCCCN)N(C)C)CN2C(=O)[C@@H](CC(=O)O)NC(=O)[C@@H](Cc2c[nH]c3ccccc23)NC1=O` came in with a Ki in data set [1] of 85.4 µM.

With `COC(=O)n1cc(C[C@H]2NC(=O)[C@H](CC(C)C)NC(=O)[C@@H](C(C)C)NC(=O)[C@@H]3CCCN3C(=O)[C@@H](CC(=O)O)NC2=O)c2ccccc21` (cyclo(L[dW](Moc)[dD]P[dV])), the Ki in data set [1] turned out to be 54.1 µM.

With `CC(C)C[C@@H]1NC(=O)[C@@H](C(C)C)NC(=O)[C@@H]2CCCN2C(=O)[C@@H](CC(=O)O)NC(=O)[C@@H](Cc2c[nH]c3ccccc23)NC1=O` [BQ-123] (cyclo(L[dW][dD]P[dV])), the inhibition constant (Ki) in data set [2] was 84.1 µM.

B1: ATP-binding cassette sub-family C member 2 (Rattus norvegicus) (protein)
chain: MDKFCNSTFWDLSLLESPEADLPLCFEQTVLVWIPLGFLWLLAPWQLYSVYRSRTKRSSITKFYLAKQVFVVFLLILAAIDLSLALTEDTGQATVPPVRYTNPILYLCTWLLVLAVQHSRQWCVRKNSWFLSLFWILSVLCGVFQFQTLIRALLKDSKSNMAYSYLFFVSYGFQIVLLILTAFSGPSDSTQTPSVTASFLSSITFSWYDRTVLKGYKHPLTLEDVWDIDEGFKTRSVTSKFEAAMTKDLQKARQAFQRRLQKSQRKPEATLHGLNKKQSQSQDVLVLEEAKKKSEKTTKDYPKSWLIKSLFKTFHVVILKSFILKLIHDLLVFLNPQLLKLLIGFVKSSNSYVWFGYICAILMFAVTLIQSFCLQSYFQHCFVLGMCVRTTVMSSIYKKALTLSNLARKQYTIGETVNLMSVDSQKLMDATNYMQLVWSSVIQITLSIFFLWRELGPSILAGVGVMVLLIPVNGVLATKIRNIQVQNMKNKDKRLKIMNEILSGIKILKYFAWEPSFQEQVQGIRKKELKNLLRFGQLQSLLIFILQITPILVSVVTFSVYVLVDSANVLNAEKAFTSITLFNILRFPLSMLPMVTSSILQASVSVDRLERYLGGDDLDTSAIRRVSNFDKAVKFSEASFTWDPDLEATIQDVNLDIKPGQLVAVVGTVGSGKSSLVSAMLGEMENVHGHITIQGSTAYVPQQSWIQNGTIKDNILFGSEYNEKKYQQVLKACALLPDLEILPGGDMAEIGEKGINLSGGQKQRVSLARAAYQDADIYILDDPLSAVDAHVGKHIFNKVVGPNGLLAGKTRIFVTHGIHFLPQVDEIVVLGKGTILEKGSYRDLLDKKGVFARNWKTFMKHSGPEGEATVNNDSEAEDDDDGLIPTMEEIPEDAASLAMRRENSLRRTLSRSSRSSSRRGKSLKNSLKIKNVNVLKEKEKEVEGQKLIKKEFVETGKVKFSIYLKYLQAVGWWSILFIILFYGLNNVAFIGSNLWLSAWTSDSDNLNGTNNSSSHRDMRIGVFGALGLAQGICLLISTLWSIYACRNASKALHGQLLTNILRAPMRFFDTTPTGRIVNRFSGDISTVDDLLPQTLRSWMMCFFGIAGTLVMICMATPVFAIIIIPLSILYISVQVFYVATSRQLRRLDSVTKSPIYSHFSETVTGLPIIRAFEHQQRFLAWNEKQIDINQKCVFSWITSNRWLAIRLELVGNLVVFCSALLLVIYRKTLTGDVVGFVLSNALNITQTLNWLVRMTSEAETNIVAVERISEYINVENEAPWVTDKRPPADWPRHGEIQFNNYQVRYRPELDLVLKGITCNIKSGEKVGVVGRTGAGKSSLTNCLFRILESAGGQIIIDGIDVASIGLHDLRERLTIIPQDPILFSGSLRMNLDPFNKYSDEEVWRALELAHLRSFVSGLQLGLLSEVTEGGDNLSIGQRQLLCLGRAVLRKSKILVLDEATAAVDLETDSLIQTTIRKEFSQCTVITIAHRLHTIMDSDKIMVLDNGKIVEYGSPEELLSNRGSFYLMAKEAGIENVNHTEL
Consider B1, for which the Km in data set [3] was 97.8 µM; in data set [4], 6.46 µM; in data set [5] it was 15.1 µM.

As a reminder, the Ki is the equilibrium dissociation constant of an inhibitor or competing ligand from its target. Usually Km stands for the substrate concentration at which the rate is half of its maximum.
